Data from ChEMBL document CHEMBL2021908, “Identification of novel isocytosine derivatives as xanthine oxidase inhibitors from a set of virtual screening hits” (Bioorg Med Chem, 2012).

Legend:
[1] = biological target: T1, Xanthine dehydrogenase/oxidase (Bos taurus, UniProt P80457); assay: Inhibition of bovine xanthine oxidase assessed as uric acid formation using xanthine as substrate at 100 uM after 30 mins by spectrophotometric analysis; conditions: cattle, 0.5 h
[2] = biological target: T1, Xanthine dehydrogenase/oxidase; assay: Inhibition of bovine xanthine oxidase assessed as uric acid formation using xanthine as substrate after 30 mins by spectrophotometric analysis
Rattus norvegicus [3] = assay: Antihyperuricemic activity in Sprague-Dawley rat assessed as decrease of potassium oxonate-induced uric acid level in serum at 100 mg/kg, po administered 1 hr post potassium oxonate challenge measured after 4 hrs by photometric analysis relative to control; type: functional; parameters: scale not given: the % may be the effect or the level left
Rattus norvegicus [4] = assay: Antihyperuricemic activity in Sprague-Dawley rat assessed as decrease of potassium oxonate-induced uric acid level in serum at 50 mg/kg, ip administered 1 hr post potassium oxonate challenge measured after 4 hrs by photometric analysis relative to control; type: functional; parameters: scale not given: the % may be the effect or the level left; conditions: route intraperitoneal
[5] = biological target: T1, Xanthine dehydrogenase/oxidase; assay: Inhibition of bovine xanthine oxidase assessed as uric acid formation using xanthine as substrate at 10 uM after 30 mins by spectrophotometric analysis; conditions: cattle, 0.5 h
Rattus norvegicus [6] = assay: Antihyperuricemic activity in Sprague-Dawley rat assessed as decrease of potassium oxonate-induced uric acid level in serum at 10 mg/kg, po administered 1 hr post potassium oxonate challenge measured after 4 hrs by photometric analysis relative to control; parameters: scale not given: the % may be the effect or the level left

T1 sequence (P80457 whole entry): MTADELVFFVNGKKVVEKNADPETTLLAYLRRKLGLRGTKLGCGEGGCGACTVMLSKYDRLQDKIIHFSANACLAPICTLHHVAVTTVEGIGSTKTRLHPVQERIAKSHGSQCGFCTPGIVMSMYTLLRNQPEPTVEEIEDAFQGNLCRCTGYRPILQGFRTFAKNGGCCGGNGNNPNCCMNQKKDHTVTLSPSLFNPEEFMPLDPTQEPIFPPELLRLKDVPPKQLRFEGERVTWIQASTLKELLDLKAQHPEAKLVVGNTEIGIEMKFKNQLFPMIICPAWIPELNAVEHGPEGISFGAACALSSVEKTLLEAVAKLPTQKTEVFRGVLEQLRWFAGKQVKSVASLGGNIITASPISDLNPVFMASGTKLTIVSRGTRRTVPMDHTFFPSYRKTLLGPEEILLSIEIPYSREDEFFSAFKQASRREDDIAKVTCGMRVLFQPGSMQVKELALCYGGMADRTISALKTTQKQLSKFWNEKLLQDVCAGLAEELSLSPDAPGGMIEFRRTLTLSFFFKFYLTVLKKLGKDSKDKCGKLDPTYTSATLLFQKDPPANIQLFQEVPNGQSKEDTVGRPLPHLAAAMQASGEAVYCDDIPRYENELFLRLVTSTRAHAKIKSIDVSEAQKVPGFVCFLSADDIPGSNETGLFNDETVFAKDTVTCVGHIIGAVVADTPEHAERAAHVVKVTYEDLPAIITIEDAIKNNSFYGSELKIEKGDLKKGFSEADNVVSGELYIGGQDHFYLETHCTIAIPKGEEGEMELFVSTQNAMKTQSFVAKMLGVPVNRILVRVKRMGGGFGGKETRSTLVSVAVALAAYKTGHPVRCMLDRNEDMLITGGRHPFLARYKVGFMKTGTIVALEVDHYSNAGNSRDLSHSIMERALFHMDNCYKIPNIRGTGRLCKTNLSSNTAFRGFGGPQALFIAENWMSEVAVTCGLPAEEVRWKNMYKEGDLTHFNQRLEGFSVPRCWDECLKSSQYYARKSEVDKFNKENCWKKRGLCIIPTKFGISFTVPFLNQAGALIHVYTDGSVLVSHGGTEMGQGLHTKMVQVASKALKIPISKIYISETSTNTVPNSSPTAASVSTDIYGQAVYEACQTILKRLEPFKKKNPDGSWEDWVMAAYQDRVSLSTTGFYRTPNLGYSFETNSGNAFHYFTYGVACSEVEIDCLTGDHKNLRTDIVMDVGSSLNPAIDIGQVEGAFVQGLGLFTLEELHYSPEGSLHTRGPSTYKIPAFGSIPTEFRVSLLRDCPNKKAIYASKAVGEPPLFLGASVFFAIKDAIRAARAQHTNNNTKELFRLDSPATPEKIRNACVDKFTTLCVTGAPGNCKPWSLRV

Work on `O=C(O)c1ccc(-n2ccnc2)c([N+](=O)[O-])c1` yielded an inhibition at 100 µM [1] of 0%.
With `COc1ccc(-c2cc(C(F)(F)F)nc(N)n2)cc1` the IC50 [2] was > 100 µM.
In the case of `COc1ccc(-c2cc(O)nc(O)n2)cc1`, the inhibition at 100 µM [1] is reported as 0% and the IC50 [2] is reported as > 100 µM.
`COc1ccc(-c2cc(O)nc(N)n2)cc1` was tested, and the Activity (Rattus norvegicus [3]) was 84%.
With `COc1ccc(-c2cc(O)nc(N)n2)cc1OC` the Activity (Rattus norvegicus [4]) was 57%.
In the case of `COc1cc2c(cc1OC)-c1n[nH]c(=O)n1CC2`, the inhibition at 100 µM [1] is reported as 0%.
`O=C1C(=CNNc2ccccc2)C(=O)N(c2ccc(Cl)cc2)C(=S)N1c1ccc(Cl)cc1` was tested, and the inhibition at 100 µM [1] was 0%.
`COC(=O)c1cc(C)c2c(c1)S(=O)(=O)Cc1cc(NN)cc(Cl)c1O2` gave an inhibition at 100 µM [1] of 0%.
With `COc1ccc(-c2cc(NS(C)(=O)=O)nc(N)n2)cc1` the IC50 [2] was > 100 µM.
For `Oc1ncnc2[nH]ncc12` [ALLOPURINOL], the inhibition at 10 µM [5] was 100% and the Activity (Rattus norvegicus [6]) was 184%.
For `Cc1nc(-c2ccc(OCC(C)C)c(C#N)c2)sc1C(=O)O` [FEBUXOSTAT], the Activity (Rattus norvegicus [6]) was 209%.
